We go through eleven compounds from patent US4430324A (priority 1982, dated 1984).

For one data set, the system named is S. mutans 6715. The note with it: for IC50: read-out: ID/50; for ID/50 (recalculated as ppm F): 1440 min.
The next data set concerns S. mutans OMZ-176. The conditions noted are these: for IC50: read-out: ID/50; for ID/50 (recalculated as ppm F): 1440 min.
The next data set relates to S. salivarius SS4. The note with it: for IC50: read-out: ID/50; for ID/50 (recalculated as ppm F): 1440 min.
Another data set concerns S. salivarius H-257. The conditions noted are these: for IC50: read-out: ID/50; for ID/50 (recalculated as ppm F): 1440 min.
In the next data set the test system is S. sanguis 10556. The conditions noted are these: for IC50: read-out: ID/50; for ID/50 (recalculated as ppm F): 1440 min.
The test system of a further data set is S. sanguis 10557. The conditions noted are these: for IC50: read-out: ID/50; for ID/50 (recalculated as ppm F): 1440 min.
A further data set has as its system L. casei. The conditions noted are these: for IC50: read-out: ID/50; for ID/50 (recalculated as ppm F): 1440 min.
The subject of a further data set is cariogenic bacteria. Kind of data set: inhibition of bacterial growth, overall findings. The note with it: all bacterial isolates tested.
A further data set has as its system artificial plaque. Nature of the data set: in vitro antiplaque study. The class given is cell-based, clinical plaque samples. The conditions noted are these: for Percentage Inhibition of Growth of Artificial Plaque: means ±95% confidence limits. Here is the method: The in vitro plaque was initiated on uniformly sized aluminum plummets which were previously coated for 20 min. with wax stimulated whole saliva. These coated plummets were then placed in a Trypticase (B.B.L.) 1% sucrose growth medium inoculated with clinical plaque samples. After 5 hours of incubation at 37° C. the plummets were immersed in a solution containing equal volumes of whole saliva and the test compound for one minute and subsequently suspended overnight (37° C.) in a 20% solution of saliva supernatant. On the second day the plummets were retreated with the test solution (1 min.) and reincubated in inoculated Trypticase-sucrose growth medium for 5 hours. After this period of time the plaques were rinsed in distilled water for 5 minutes. The plaques were then removed from the plummets by sonication in 10 ml distilled water and quantitated in a Unicam SP500 spectrophotometer at 570 nm.
Five replicas per test compound were examined.

Another data set can be described thus: pH of solution. The data set is classed as physicochemical.

Where two headings read alike, the source gives them in different places.

For the compound Al2 (SO4)3, the IC50 was determined as 3.56 mM in the data set with S. mutans 6715; 5.91 mM in the data set on S. mutans OMZ-176; 7.8 mM in the data set on S. salivarius SS4; 5.4 mM in the data set with S. salivarius H-257; 5.55 mM with S. sanguis 10556; 8.45 mM in the data set with S. sanguis 10557. Further, in the data set on L. casei, the IC50 came to 6.45 mM.

Consider `[Mn]` [Mn], for which the “inhibition of bacterial growth” value in the data set with cariogenic bacteria was “little or no effect”.

Consider `[Cl-].[Cl-].[Co+2]` [CoCl2], for which the IC50 with S. mutans 6715 amounted to 7.72 mM; in the data set on S. mutans OMZ-176, 10.6 mM; with S. salivarius SS4 it was 5.96 mM; with S. salivarius H-257 it was 0.55 mM; in the data set on S. sanguis 10556, 2.89 mM; with S. sanguis 10557, 3.84 mM. Also, the IC50 in the data set on L. casei was over 12 mM.

With `[Ca]` [Ca], in the data set on cariogenic bacteria, the “inhibition of bacterial growth” value was “little or no effect”.

Consider `[Cl-].[Na+]` [Na], for which the “inhibition of bacterial growth” value in the data set with cariogenic bacteria is “little or no effect”.

Take `O=S(=O)([O-])[O-].[Zn+2]` [ZnSO4]: in the data set with artificial plaque (6.0-30.0 mM/L zinc), the “antiplaque activity” value was “no difference in activity between ZnSO4 and ZnNH4 F3”. In addition, the “Percentage Inhibition of Growth of Artificial Plaque” value with artificial plaque (zinc conc. 6.0 mM/L) was 47 ± 14%; in the data set on artificial plaque (zinc conc. 15.0 mM/L), 51 ± 14%; with artificial plaque (zinc conc. 30.0 mM/L) it was 64 ± 14%. Also, the IC50 in the data set on S. mutans 6715 was determined as 5.74 mM; with S. mutans OMZ-176 it was 7.5 mM; in the data set with S. salivarius SS4, 6 mM; in the data set on S. salivarius H-257 it was 0.75 mM; in the data set with S. sanguis 10556, 0.36 mM; in the data set on S. sanguis 10557, 0.4 mM. Further, the IC50 in the data set with L. casei is 10.4 mM.

On to `[Mg]` [Mg], for which the “inhibition of bacterial growth” value in the data set on cariogenic bacteria is “little or no effect”.

In the case of `[Cl][Sn][Cl]` [SnCl2], the IC50 in the data set with S. mutans 6715 stood at 2.26 mM; in the data set with S. mutans OMZ-176 it was 3.68 mM; with S. salivarius SS4, 1.45 mM; in the data set on S. salivarius H-257 it was 3.64 mM; in the data set on S. sanguis 10556, 1.27 mM; in the data set with S. sanguis 10557, 1.88 mM. Further, the IC50 in the data set on L. casei was 3 to 6 mM.

As to `N.N.[F-].[F-].[F-].[F-].[F-].[F-].[Sn]` [Sn(NH4)2 F6, stannic ammonium fluoride], the “pH values in solution” value in “pH of solution” is about 3.8. Besides, the “ID/50 (recalculated as ppm F)” value in the data set with S. mutans 6715 (Table III, S. mutans 6715) is given as 137 ppm F; with S. mutans OMZ-176 (Table III, S. mutans OMZ-176), 163 ppm F; with S. salivarius SS4 (Table III, S. salivarius SS4), 188 ppm F; in the data set with S. salivarius H-257 (Table III, S. salivarius H-257), 46 ppm F; in the data set with S. sanguis 10556 (Table III, S. sanguis 10556), 25 ppm F; with S. sanguis 10557 (Table III, S. sanguis 10557) it was 45 ppm F. The “ID/50 (recalculated as ppm F)” value with L. casei (Table III, L. casei) was 288 ppm F. The IC50 in the data set with S. mutans 6715 (Table II, fluoride salts, S. mutans 6715, means of triplicate experiments) was determined as 1.2 mM; in the data set on S. mutans OMZ-176 (Table II, fluoride salts, S. mutans OMZ-176, means of triplicate experiments) it was 1.43 mM; in the data set on S. salivarius SS4 (Table II, fluoride salts, S. salivarius SS4, means of triplicate experiments), 1.65 mM; with S. salivarius H-257 (Table II, fluoride salts, S. salivarius H-257, means of triplicate experiments), 0.4 mM; with S. sanguis 10556 (Table II, fluoride salts, S. sanguis 10556, means of triplicate experiments) it was 0.22 mM; in the data set with S. sanguis 10557 (Table II, fluoride salts, S. sanguis 10557, means of triplicate experiments), 0.39 mM. Moreover, the IC50 with L. casei (Table II, fluoride salts, L. casei, means of triplicate experiments) stood at 2.53 mM. Moreover, the “inhibition of bacterial growth” value with cariogenic bacteria was “less active than the stannous form SnF2”.

Regarding SnF2, the “% Reduction in Dissolution” value is, setting by setting: (pH 4) 57%; (pH 5) 54%; (pH 6) 45%; (pH 7) 43%. For the same compound, the “ID/50 (recalculated as ppm F)” value is 56 in the data set on S. mutans 6715; 87 with S. mutans OMZ-176; 93 with S. salivarius SS4; 29 in the data set on S. salivarius H-257; 17 in the data set on S. sanguis 10556; 32 in the data set with S. sanguis 10557. The “ID/50 (recalculated as ppm F)” value in the data set with L. casei is 113. Moreover, the IC50 in the data set on S. mutans 6715 was 1.5 mM; in the data set with S. mutans OMZ-176, 2.28 mM; in the data set with S. salivarius SS4, 2.45 mM; in the data set with S. salivarius H-257 it was 0.74 mM; in the data set on S. sanguis 10556, 0.44 mM; in the data set with S. sanguis 10557, 0.84 mM. In addition, in the data set with L. casei, the IC50 amounted to 2.97 mM.

With `[Fe]` [Fe], the “inhibition of bacterial growth” value with cariogenic bacteria is “little or no effect”.
